Positions of bridges follow the written chain, without caps; N, C: chain ends. Non-standard residues stand in square brackets, D forms with d. Residues, ends and D or L forms follow the SMILES beside them. ξ: configuration not given here. *: point of attachment. Phe(4-COOH) = N[C@@H](Cc1ccc(C(=O)O)cc1)C(=O)O; Bip = N[C@@H](Cc1ccc(-c2ccccc2)cc1)C(=O)O; Phe(3-Me) = Cc1cccc(C[C@H](N)C(=O)O)c1; NMeF = CN[C@@H](Cc1ccccc1)C(=O)O; 4Pal = N[C@@H](Cc1ccncc1)C(=O)O; Cha = N[C@@H](CC1CCCCC1)C(=O)O; Carboxymethyl = O=C(O)C*; NMeA = CN[C@@H](C)C(=O)O; Orn = NCCC[C@H](N)C(=O)O; Dab = NCC[C@H](N)C(=O)O; Dap = NC[C@H](N)C(=O)O; ξV = CC(C)C(N)C(=O)O

In this test the target is T1, human PD-1 (Jurkat-PD-1 cells) / PE-labeled human PD-L1-Ig (Homo sapiens, UniProt Q15116).
T1 construct: expressed in transfected cells; host or cells: Jurkat cell line over-expressing human PD-1
T1 sequence (Q15116 25-288): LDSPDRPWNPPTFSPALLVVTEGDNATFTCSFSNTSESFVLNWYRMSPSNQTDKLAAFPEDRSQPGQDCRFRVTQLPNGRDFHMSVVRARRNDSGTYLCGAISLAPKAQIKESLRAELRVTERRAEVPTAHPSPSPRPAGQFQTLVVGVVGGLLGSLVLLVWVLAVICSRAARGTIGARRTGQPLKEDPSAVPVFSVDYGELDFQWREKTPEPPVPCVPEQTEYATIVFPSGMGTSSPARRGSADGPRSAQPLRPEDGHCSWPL
Briefly: Jurkat-PD-1 Cell Binding High-Content Screening Assay (CBA); Jurkat hPD1-PDL1 assay. Particulars: Jurkat cell line over-expressing human PD-1; PE-labeled PD-L1-Ig 20 nM final; compound incubated 2 hours at 37° C.; read-out: Jurkat HPD1-PDL1 IC50. The procedure, abridged:
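Binding of phycoerythrin-conjugated PD-L1-Ig (20 nM final) to PD-1-overexpressing Jurkat cells was read by high-content imaging. Cells in DMEM/10% FCS were exposed to compound for 2 hours at 37° C before labeled ligand was added.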
Regarding `CC(C)C[C@@H]1NC(=O)[C@H](Cc2c[nH]c3ccccc23)NC(=O)[C@H](CC(=O)O)NC(=O)[C@H](Cc2ccncc2)NC(=O)[C@H](Cc2ccc(OCC(=O)O)cc2)NC(=O)CSC[C@@H](C(=O)N[C@@H](C)C(N)=O)NC(=O)[C@H](CO)NC(=O)[C@H](C(C)C)NC(=O)[C@H](CC(C)C)NC(=O)[C@H](CC(N)=O)NC(=O)[C@H]2CCCN2C(=O)[C@H](C)N(C)C(=O)[C@H](C(C)C)NC(=O)[C@H](Cc2ccc(-c3ccccc3)cc2)NC1=O` [Example 1435] ({CH2CO}-Y(Carboxymethyl)[4Pal]DWL[Bip]V[NMeA][dP]NLVSCA-NH2; thioether N-14), the half-inhibitory concentration (IC50) (in general, the concentration at which inhibition is half-maximal) amounted to 90 nM.
Turning to `Cc1cccc(C[C@@H]2NC(=O)[C@H](CC(=O)O)NC(=O)[C@H](Cc3ccc(C(=O)O)cc3)NC(=O)[C@H](Cc3ccc(OCC(=O)O)cc3)NC(=O)CSC[C@@H](C(=O)N[C@@H](C)C(N)=O)NC(=O)[C@H](CO)NC(=O)[C@H](C(C)C)NC(=O)[C@H](CC(C)C)NC(=O)[C@H](CC(N)=O)NC(=O)[C@H]3CCCN3C(=O)[C@H](C)N(C)C(=O)[C@H](C(C)C)NC(=O)[C@H](Cc3ccc(-c4ccccc4)cc3)NC(=O)[C@H](CC(C)C)NC2=O)c1` [Example 1436] ({CH2CO}-Y(Carboxymethyl)[Phe(4-COOH)]D[Phe(3-Me)]L[Bip]V[NMeA][dP]NLVSCA-NH2; thioether N-14), the IC50 was 40 nM.
The figure for `Cc1cccc(C[C@@H]2NC(=O)[C@H](CC(=O)O)NC(=O)[C@H](Cc3ccc(OCC(=O)O)cc3)NC(=O)[C@H](Cc3ccc(OCC(=O)O)cc3)NC(=O)CSC[C@@H](C(=O)N[C@@H](C)C(N)=O)NC(=O)[C@H](CO)NC(=O)[C@H](C(C)C)NC(=O)[C@H](CC(C)C)NC(=O)[C@H](CC(N)=O)NC(=O)[C@H]3CCCN3C(=O)[C@H](C)N(C)C(=O)[C@H](C(C)C)NC(=O)[C@H](Cc3ccc(-c4ccccc4)cc3)NC(=O)[C@H](CC(C)C)NC2=O)c1` [Example 1437] ({CH2CO}-Y(Carboxymethyl)Y(Carboxymethyl)D[Phe(3-Me)]L[Bip]V[NMeA][dP]NLVSCA-NH2; thioether N-14) is 30 nM; for `CC(C)[C@@H]1NC(=O)[C@H](Cc2c[nH]c3ccccc23)NC(=O)[C@H](CC(=O)O)NC(=O)[C@H](Cc2ccc(C(=O)O)cc2)NC(=O)[C@H](Cc2ccncc2)NC(=O)CSC[C@@H](C(=O)N[C@@H](C)C(N)=O)NC(=O)[C@H]([C@@H](C)O)NC(=O)[C@H](C(C)C)NC(=O)[C@H](CC2CCCCC2)NC(=O)[C@H](CCN)NC(=O)[C@H](Cc2ccccc2)N(C)C(=O)[C@H](CCCN)NC(=O)[C@H](CCC(=O)O)NC(=O)[C@H](Cc2ccc(-c3ccccc3)cc2)NC1=O` [Example 1438] ({CH2CO}-[4Pal][Phe(4-COOH)]DWV[Bip]E[Orn][NMeF][Dab][Cha]VTCA-NH2; thioether N-14) it is 70 nM.
As to `CC(C)[C@@H]1NC(=O)[C@H](Cc2c[nH]c3ccccc23)NC(=O)[C@H](CC(=O)O)NC(=O)[C@H](Cc2ccncc2)NC(=O)[C@H](CN)NC(=O)CSC[C@@H](C(=O)N[C@@H](C)C(N)=O)NC(=O)[C@H]([C@@H](C)O)NC(=O)[C@H](C(C)C)NC(=O)[C@H](CC2CCCCC2)NC(=O)[C@H](CCN)NC(=O)[C@H](Cc2ccccc2)N(C)C(=O)[C@H](CCCN)NC(=O)[C@H](CCC(=O)O)NC(=O)[C@H](Cc2ccc(-c3ccccc3)cc2)NC1=O` [Example 1439] ({CH2CO}-[Dap][4Pal]DWV[Bip]E[Orn][NMeF][Dab][Cha]VTCA-NH2; thioether N-14), the IC50 amounted to 90 nM.
Then `CC(C)C1NC(=O)[C@H](Cc2c[nH]c3ccccc23)NC(=O)[C@H](CC(=O)O)NC(=O)[C@H](Cc2ccncc2)NC(=O)[C@H](Cc2ccc(OCC(=O)O)cc2)NC(=O)CSC[C@@H](C(=O)N[C@@H](C)C(N)=O)NC(=O)[C@H]([C@@H](C)O)NC(=O)[C@H](C(C)C)NC(=O)[C@H](CC2CCCCC2)NC(=O)[C@H](CCN)NC(=O)[C@H](Cc2ccccc2)N(C)C(=O)[C@H](CCCN)NC(=O)[C@H](CCC(=O)O)NC(=O)[C@H](Cc2ccc(-c3ccccc3)cc2)NC1=O` (some centres unmarked) [Example 1440] ({CH2CO}-Y(Carboxymethyl)[4Pal]DW[ξV][Bip]E[Orn][NMeF][Dab][Cha]VTCA-NH2; thioether N-14), with 70 nM; and `CC(C)C1NC(=O)[C@H](Cc2c[nH]c3ccccc23)NC(=O)[C@H](CC(=O)O)NC(=O)[C@H](Cc2ccc(O)cc2)NC(=O)[C@H](CC(N)=O)NC(=O)CSC[C@@H](C(=O)N[C@@H](C)C(N)=O)NC(=O)[C@H]([C@@H](C)O)NC(=O)[C@H](C(C)C)NC(=O)[C@H](CC2CCCCC2)NC(=O)[C@H](CCN)NC(=O)[C@H](Cc2ccccc2)N(C)C(=O)[C@H](CCCN)NC(=O)[C@H](CCC(=O)O)NC(=O)[C@H](Cc2ccc(-c3ccccc3)cc2)NC1=O` (some centres unmarked) [Example 1441] ({CH2CO}-NYDW[ξV][Bip]E[Orn][NMeF][Dab][Cha]VTCA-NH2; thioether N-14), with 60 nM.
The figure for `CC(C)C1NC(=O)[C@H](Cc2c[nH]c3ccccc23)NC(=O)[C@H](CC(=O)O)NC(=O)[C@H](Cc2ccc(OCC(=O)O)cc2)NC(=O)[C@H](CN)NC(=O)CSC[C@@H](C(=O)N[C@@H](C)C(N)=O)NC(=O)[C@H]([C@@H](C)O)NC(=O)[C@H](C(C)C)NC(=O)[C@H](CC2CCCCC2)NC(=O)[C@H](CCN)NC(=O)[C@H](Cc2ccccc2)N(C)C(=O)[C@H](CCCN)NC(=O)[C@H](CCC(=O)O)NC(=O)[C@H](Cc2ccc(-c3ccccc3)cc2)NC1=O` (some centres unmarked) [Example 1442] ({CH2CO}-[Dap]Y(Carboxymethyl)DW[ξV][Bip]E[Orn][NMeF][Dab][Cha]VTCA-NH2; thioether N-14) is 70 nM; for `CC(C)C1NC(=O)[C@H](Cc2c[nH]c3ccccc23)NC(=O)[C@H](CC(=O)O)NC(=O)[C@H](Cc2ccc(C(=O)O)cc2)NC(=O)[C@H](Cc2ccc(OCC(=O)O)cc2)NC(=O)CSC[C@@H](C(=O)N[C@@H](C)C(N)=O)NC(=O)[C@H]([C@@H](C)O)NC(=O)[C@H](C(C)C)NC(=O)[C@H](CC2CCCCC2)NC(=O)[C@H](CCN)NC(=O)[C@H](Cc2ccccc2)N(C)C(=O)[C@H](CCCN)NC(=O)[C@H](CCC(=O)O)NC(=O)[C@H](Cc2ccc(-c3ccccc3)cc2)NC1=O` (some centres unmarked) [Example 1443] ({CH2CO}-Y(Carboxymethyl)[Phe(4-COOH)]DW[ξV][Bip]E[Orn][NMeF][Dab][Cha]VTCA-NH2; thioether N-14) it is 80 nM; for `Cc1cccc(C[C@@H]2NC(=O)[C@H](CC(=O)O)NC(=O)[C@H](Cc3ccc(C(=O)O)cc3)NC(=O)[C@H](Cc3ccncc3)NC(=O)CSC[C@@H](C(=O)N[C@@H](C)C(N)=O)NC(=O)[C@H]([C@@H](C)O)NC(=O)[C@H](C(C)C)NC(=O)[C@H](CC3CCCCC3)NC(=O)[C@H](CCN)NC(=O)[C@H](Cc3ccccc3)N(C)C(=O)[C@H](CCCN)NC(=O)[C@H](CCC(=O)O)NC(=O)[C@H](Cc3ccc(-c4ccccc4)cc3)NC(=O)C(C(C)C)NC2=O)c1` (some centres unmarked) [Example 1444] ({CH2CO}-[4Pal][Phe(4-COOH)]D[Phe(3-Me)][ξV][Bip]E[Orn][NMeF][Dab][Cha]VTCA-NH2; thioether N-14) it is 50 nM.
`Cc1cccc(C[C@@H]2NC(=O)[C@H](CC(=O)O)NC(=O)[C@H](Cc3ccncc3)NC(=O)[C@H](CN)NC(=O)CSC[C@@H](C(=O)N[C@@H](C)C(N)=O)NC(=O)[C@H]([C@@H](C)O)NC(=O)[C@H](C(C)C)NC(=O)[C@H](CC3CCCCC3)NC(=O)[C@H](CCN)NC(=O)[C@H](Cc3ccccc3)N(C)C(=O)[C@H](CCCN)NC(=O)[C@H](CCC(=O)O)NC(=O)[C@H](Cc3ccc(-c4ccccc4)cc3)NC(=O)C(C(C)C)NC2=O)c1` (some centres unmarked) [Example 1445] ({CH2CO}-[Dap][4Pal]D[Phe(3-Me)][ξV][Bip]E[Orn][NMeF][Dab][Cha]VTCA-NH2; thioether N-14): the IC50 is 10 nM.
For the molecule `Cc1cccc(C[C@@H]2NC(=O)[C@H](CC(=O)O)NC(=O)[C@H](Cc3ccncc3)NC(=O)[C@H](Cc3ccc(OCC(=O)O)cc3)NC(=O)CSC[C@@H](C(=O)N[C@@H](C)C(N)=O)NC(=O)[C@H]([C@@H](C)O)NC(=O)[C@H](C(C)C)NC(=O)[C@H](CC3CCCCC3)NC(=O)[C@H](CCN)NC(=O)[C@H](Cc3ccccc3)N(C)C(=O)[C@H](CCCN)NC(=O)[C@H](CCC(=O)O)NC(=O)[C@H](Cc3ccc(-c4ccccc4)cc3)NC(=O)C(C(C)C)NC2=O)c1` (some centres unmarked) [Example 1446] ({CH2CO}-Y(Carboxymethyl)[4Pal]D[Phe(3-Me)][ξV][Bip]E[Orn][NMeF][Dab][Cha]VTCA-NH2; thioether N-14), the IC50 is 20 nM.
The figure for `Cc1cccc(C[C@@H]2NC(=O)[C@H](CC(=O)O)NC(=O)[C@H](Cc3ccc(O)cc3)NC(=O)[C@H](CC(N)=O)NC(=O)CSC[C@@H](C(=O)N[C@@H](C)C(N)=O)NC(=O)[C@H]([C@@H](C)O)NC(=O)[C@H](C(C)C)NC(=O)[C@H](CC3CCCCC3)NC(=O)[C@H](CCN)NC(=O)[C@H](Cc3ccccc3)N(C)C(=O)[C@H](CCCN)NC(=O)[C@H](CCC(=O)O)NC(=O)[C@H](Cc3ccc(-c4ccccc4)cc3)NC(=O)C(C(C)C)NC2=O)c1` (some centres unmarked) [Example 1447] ({CH2CO}-NYD[Phe(3-Me)][ξV][Bip]E[Orn][NMeF][Dab][Cha]VTCA-NH2; thioether N-14) is 30 nM; for `Cc1cccc(C[C@@H]2NC(=O)[C@H](CC(=O)O)NC(=O)[C@H](Cc3ccc(OCC(=O)O)cc3)NC(=O)[C@H](CN)NC(=O)CSC[C@@H](C(=O)N[C@@H](C)C(N)=O)NC(=O)[C@H]([C@@H](C)O)NC(=O)[C@H](C(C)C)NC(=O)[C@H](CC3CCCCC3)NC(=O)[C@H](CCN)NC(=O)[C@H](Cc3ccccc3)N(C)C(=O)[C@H](CCCN)NC(=O)[C@H](CCC(=O)O)NC(=O)[C@H](Cc3ccc(-c4ccccc4)cc3)NC(=O)C(C(C)C)NC2=O)c1` (some centres unmarked) [Example 1448] ({CH2CO}-[Dap]Y(Carboxymethyl)D[Phe(3-Me)][ξV][Bip]E[Orn][NMeF][Dab][Cha]VTCA-NH2; thioether N-14) it is 30 nM.

For the origin of these results see patent US20240360178A1, “MACROCYCLIC IMMUNOMODULATORS” (Bristol-Myers Squibb Company, priority 2021, published 2024).
